Data as given in the NIST ThermoML archive (doi:10.1016/j.fluid.2008.01.030).
Numbers after ± are expanded uncertainties. Values belong to the compound of their own block, whether it stands above or below them.

Conditions: Liquid, Closed cell (Static) method

SMILES: C=CCC [1-butene]
vapor or sublimation pressure (312.57 K): 454.5 ± 2.3 kPa

SMILES: C/C=C/C [(E)-2-butene]
vapor or sublimation pressure (317.29 K): 413.8 ± 2.2 kPa

SMILES: C/C=C\C [(Z)-2-butene]
vapor or sublimation pressure (312.59 K): 332.2 ± 1.9 kPa

More lines, now with the values ahead:

vapor or sublimation pressure (307.86 K): 459.8 ± 2.3 kPa
SMILES: CC(C)C [2-methylpropane]

vapor or sublimation pressure (312.6 K): 465.3 ± 2.3 kPa
SMILES: C=C(C)C [2-methylpropene]

vapor or sublimation pressure (307.86 K): 91.7 ± 1.3 kPa | vapor or sublimation pressure (312.58 K): 107.7 ± 1.3 kPa | vapor or sublimation pressure (312.59 K): 106.2 ± 1.3 kPa | vapor or sublimation pressure (312.6 K): 107.4 ± 1.3 kPa | vapor or sublimation pressure (317.32 K): 126 ± 1.3 kPa | vapor or sublimation pressure (317.35 K): 126 ± 1.3 kPa
SMILES: CSC [2-thiapropane]

vapor or sublimation pressure (317.47 K): 425.7 ± 2.1 kPa
SMILES: CCCC [butane]
